# Data from patent US8188078B2 (Sanofi-Aventis, priority 2007, dated 2012).
# Counter-ions that a name gives are not always drawn.
# Target: T1, MET (Homo sapiens, UniProt P08581)
# T1 construct: endogenous in cells; host or cells: MKN45 cells
# Assay: Test C: inhibition of the autophosphorylation of MET, ELISA technique (pppY1230, 1234, 1235), MKN45 cells
# Format: cell-based
# Protocol: C) Inhibition of the Autophosphorylation of MET; ELISA Technique (pppY1230, 1234, 1235)
# a) Cellular lysates: Sow the MKN45 cells in a 96-well plate (Cell coat BD polylysine) at 20 000 cells/well under 200 μl of medium RPMI+10% FCS+1% L-glutamine. Leave to adhere to the incubator for 24 h.
# The cells are treated on the day after sowing with the products at 6 concentrations in duplicate for 1 h. At least 3 control wells are treated with the same amount of final DMSO.
# Dilution of the products: Stock at 10 mM in pure DMSO—range from 10 mM to 30 μM with steps of 3 of pure DMSO—Intermediate dilutions to 1/50 in culture medium then taking of 10 μl added directly to the cells (200 μl): final range from 10000 to 30 nM.
# At the end of incubation, carefully remove the supernatant and rinse with 200 μl of PBS. Then put 100 μl of lysis buffer directly in the wells on ice and incubate at 4° C. for 30 minutes. Lysis buffer: 10 mM Tris, HCl pH7.4, 100 mM NaCl, 1 mM EDTA, 1 mM EGTA, 1% Triton X-100, 10% glycerol, 0.1% SDS, 0.5% deoxycholate, 20 mM NaF, 2 mM Na3VO4, 1 mM PMSF and antiprotease cocktail.
# The 100 μl of lysates are transferred to a V-bottomed polypropylene plate and ELISA is performed next or the plate is frozen at −80° C.
# b) ELISA PhosphoMET BioSource Kit KH00281
# In each well of the plate from the kit, add 70 μl of dilution buffer from the kit+30 μL of cell lysate or 30 μl of lysis buffer for the blank. Incubate for 2 h at room temperature, stirring gently.
# Rinse the wells 4 times with 400 μl of washing buffer from the kit. Incubate with 100 μl of anti-phospho MET antibodies for 1 h at room temperature.
# Rinse the wells 4 times with 400 μl of washing buffer from the kit. Incubate with 100 μl of anti-rabbit HRP antibodies for 30 minutes at room temperature (except for the wells with chromogen only).
# Rinse the wells 4 times with 400 μl of washing buffer from the kit. Add 100 μL of chromogen and incubate for 30 minutes in the dark at room temperature.
# Stop the reaction with 100 μl of stop solution. Read at once at […] 0.1 second in the Wallac Victor plate reader.
# The products of formula (I) as defined above show cellular activity in this test between 10 nM and 10 μM.
# T1 sequence (P08581 25-1390): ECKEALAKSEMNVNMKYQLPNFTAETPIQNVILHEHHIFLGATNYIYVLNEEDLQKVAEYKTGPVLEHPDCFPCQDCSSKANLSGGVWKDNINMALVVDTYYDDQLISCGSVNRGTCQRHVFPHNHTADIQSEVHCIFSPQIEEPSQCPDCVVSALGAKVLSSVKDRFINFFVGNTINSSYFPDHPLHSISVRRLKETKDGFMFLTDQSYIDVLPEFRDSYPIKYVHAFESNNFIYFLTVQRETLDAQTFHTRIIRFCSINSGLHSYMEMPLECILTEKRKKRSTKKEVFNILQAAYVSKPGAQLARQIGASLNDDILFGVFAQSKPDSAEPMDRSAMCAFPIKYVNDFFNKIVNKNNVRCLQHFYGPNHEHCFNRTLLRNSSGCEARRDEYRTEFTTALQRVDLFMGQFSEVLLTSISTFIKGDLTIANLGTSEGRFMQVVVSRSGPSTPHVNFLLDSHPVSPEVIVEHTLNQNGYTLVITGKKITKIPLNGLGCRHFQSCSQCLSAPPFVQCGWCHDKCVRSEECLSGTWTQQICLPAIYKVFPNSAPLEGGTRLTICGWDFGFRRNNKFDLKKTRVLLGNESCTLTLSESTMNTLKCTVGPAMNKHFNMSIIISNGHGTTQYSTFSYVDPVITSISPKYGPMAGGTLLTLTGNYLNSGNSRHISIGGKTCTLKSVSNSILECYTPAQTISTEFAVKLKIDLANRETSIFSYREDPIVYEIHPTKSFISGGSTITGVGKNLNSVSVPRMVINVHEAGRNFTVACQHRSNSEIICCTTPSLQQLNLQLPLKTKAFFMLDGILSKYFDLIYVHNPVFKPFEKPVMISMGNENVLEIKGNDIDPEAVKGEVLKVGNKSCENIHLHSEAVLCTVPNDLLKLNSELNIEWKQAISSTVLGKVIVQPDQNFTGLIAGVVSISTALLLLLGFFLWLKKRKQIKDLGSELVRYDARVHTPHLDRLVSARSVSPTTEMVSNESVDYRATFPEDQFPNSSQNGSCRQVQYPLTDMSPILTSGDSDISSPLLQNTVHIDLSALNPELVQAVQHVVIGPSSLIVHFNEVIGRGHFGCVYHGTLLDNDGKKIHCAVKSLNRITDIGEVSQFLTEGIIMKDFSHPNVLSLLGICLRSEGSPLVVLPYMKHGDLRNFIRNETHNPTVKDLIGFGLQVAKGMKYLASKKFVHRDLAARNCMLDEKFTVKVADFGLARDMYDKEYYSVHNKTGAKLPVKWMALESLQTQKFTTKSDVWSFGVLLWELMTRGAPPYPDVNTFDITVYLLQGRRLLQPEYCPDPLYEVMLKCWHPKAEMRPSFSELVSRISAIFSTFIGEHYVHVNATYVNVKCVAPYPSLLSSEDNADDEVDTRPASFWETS
row,Structure (SMILES),IC50 [nM]
1,"CC(Oc1ccc2nc(NC(=O)NCCN3CCOCC3)sc2c1)c1c(Cl)ccc(F)c1Cl (single isomer, unassigned) [Example 25, 1-{6-[(1R*)-(2,6-dichloro-3-fluorophenyl)ethoxy]-1,3-benzothiazol-2-yl}-3-(2-morpholin-4-ylethyl)urea]",< 500
2,"C[C@@H](Oc1cc2sc(NC(=O)NCCN3CCOCC3)nc2cc1F)c1c(Cl)ccc(F)c1Cl (single isomer, unassigned) [Example 32, 1-{6-[(1R)-(2,6-dichloro-3-fluorophenyl)ethoxy]-5-fluoro-1,3-benzothiazol-2-yl}-3-(2-morpholin-4-ylethyl)urea or 1-{6-[(1S)-(2,6-dichloro-3-fluorophenyl)ethoxy]-5-fluoro-1,3-benzothiazol-2-yl}-3-(2-morpholin-4-ylethyl)urea]",< 500
3,"C[C@@H](Oc1cc2sc(NC(=O)NCCN3CCOCC3)nc2cc1F)c1c(Cl)ccc(F)c1Cl (single isomer, unassigned) [Example 33, 1-{6-[(1R)-(2,6-dichloro-3-fluorophenyl)ethoxy]-5-fluoro-1,3-benzothiazol-2-yl}-3-(2-morpholin-4-ylethyl)urea or 1-{6-[(1S)-(2,6-dichloro-3-fluorophenyl)ethoxy]-5-fluoro-1,3-benzothiazol-2-yl}-3-(2-morpholin-4-ylethyl)urea]",500 to 10000
4,"CC(Oc1cc2sc(NC(=O)NCCO)nc2cc1F)c1c(Cl)ccc(F)c1Cl (single isomer, unassigned) [Example 99, 1-{6-[(1R*)-1-(2,6-dichloro-3-fluorophenyl)ethoxy]-5-fluoro-1,3-benzothiazol-2-yl}-3-(2-hydroxyethyl)urea]",< 500
5,"CCN1CCN(CCNC(=O)Nc2nc3cc(F)c(OC(C)c4c(Cl)ccc(F)c4Cl)cc3s2)CC1 (single isomer, unassigned) [Example 101, 1-{6-[(1R*)-1-(2,6-dichloro-3-fluorophenyl)ethoxy]-5-fluoro-1,3-benzothiazol-2-yl}-3-[2-(4-ethylpiperazin-1-yl)ethyl]urea]",< 500
6,"CCN1CCN(CCNC(=O)Nc2nc3cc(F)c(OC(C)c4c(Cl)ccc(F)c4Cl)cc3s2)CC1 (single isomer, unassigned) [Example 102, 1-{6-[(1S*)-1-(2,6-dichloro-3-fluorophenyl)ethoxy]-5-fluoro-1,3-benzothiazol-2-yl}-3-[2-(4-ethylpiperazin-1-yl)ethyl]urea]",500 to 10000
7,"CC(Oc1ccc2nc(NC(=O)NCCN3CCN(C)CC3)sc2c1)c1c(F)ccc(Cl)c1Cl (single isomer, unassigned) [Example 109, 1-{6-[(1R*)-1-(2,3-dichloro-6-fluorophenyl)ethoxy]-1,3-benzothiazol-2-yl}-3-[2-(4-methylpiperazin-1-yl)ethyl]urea]",< 500
8,"CC(Oc1cc2sc(NC(=O)NCCN3CCOCC3)nc2cc1F)c1c(F)ccc(Cl)c1Cl (single isomer, unassigned) [Example 112, 1-{6-[(1R*)-1-(2,3-dichloro-6-fluorophenyl)ethoxy]-5-fluoro-1,3-benzothiazol-2-yl}-3-[2-(morpholin-4-yl)ethyl]urea]",< 500
9,"CC(Oc1cc2sc(NC(=O)NCCN3CCOCC3)nc2cc1F)c1c(F)ccc(Cl)c1Cl (single isomer, unassigned) [Example 113, 1-{6-[(1S*)-1-(2,3-dichloro-6-fluorophenyl)ethoxy]-5-fluoro-1,3-benzothiazol-2-yl}-3-[2-(morpholin-4-yl)ethyl]urea]",< 500
10,"CC(Oc1cc2sc(NC(=O)NCCN3CCN(C)CC3)nc2cc1F)c1c(F)ccc(Cl)c1Cl (single isomer, unassigned) [Example 116, 1-{6-[(1R*)-1-(2,3-dichloro-6-fluorophenyl)ethoxy]-5-fluoro-1,3-benzothiazol-2-yl}-3-[2-(4-methylpiperazin-1-yl)ethyl]urea]",< 500
11,"CC(Oc1cc2sc(NC(=O)NCCN3CCN(C)CC3)nc2cc1F)c1c(F)ccc(Cl)c1Cl (single isomer, unassigned) [Example 117, 1-{6-[(1S*)-1-(2,3-dichloro-6-fluorophenyl)ethoxy]-5-fluoro-1,3-benzothiazol-2-yl}-3-[2-(4-methylpiperazin-1-yl)ethyl]urea]",500 to 10000
12,"CC(Oc1cc2sc(NC(=O)NCCN3CCCC3)nc2cc1F)c1c(F)ccc(Cl)c1Cl (single isomer, unassigned) [Example 119, 1-{6-[(1R*)-1-(2,3-dichloro-6-fluorophenyl)ethoxy]-5-fluoro-1,3-benzothiazol-2-yl}-3-[2-(pyrrolidin-1-yl)ethyl]urea]",< 500
13,"CC(Oc1ccc2nc(NC(=O)NCCN3CCCC3)sc2c1)c1c(F)ccc(Cl)c1Cl (single isomer, unassigned) [Example 121, 1-{6-[(1R*)-(2,3-dichloro-6-fluorophenyl)ethoxy]-1,3-benzothiazol-2-yl}-3-[2-(pyrrolidin-1-yl)ethyl]urea]",< 500
14,"CC(Oc1ccc2nc(NC(=O)NCCN3CCOCC3)[nH]c2c1)c1c(Cl)ccc(F)c1Cl (centres unmarked) [Example 4, 4-{2-[({6-[1-(2,6-Dichloro-3-fluorophenyl)ethoxy]-1H-benzimidazol-2-yl}carbamoyl)amino]ethyl}morpholin-4-ium trifluoroacetate]",500 to 10000
15,"CC(Oc1ccc2nc(NC(=O)NCCN3CCOCC3)sc2c1)c1c(F)cccc1F (centres unmarked) [Example 18, 1-{6-[1-(2,6-difluorophenyl)ethoxy]-1,3-benzothiazol-2-yl}-3-(2-morpholin-4-ylethyl)urea]",500 to 10000
16,"CC(Oc1ccc2nc(NC(=O)NCCN3CCOCC3)sc2c1)c1ccccc1C(F)(F)F (centres unmarked) [Example 19, 1-(2-morpholin-4-ylethyl)-3-(6-{1-[2-(trifluoromethyl)phenyl]ethoxy}-1,3-benzothiazol-2-yl)urea]",500 to 10000
17,"CC(Oc1ccc2nc(NC(=O)NCCC3CCNCC3)sc2c1)c1c(Cl)ccc(F)c1Cl (centres unmarked) [Example 39, 1-{6-[1-(2,6-Dichloro-3-fluorophenyl)ethoxy]-1,3-benzothiazol-2-yl}-3-(2-piperidin-4-ylethyl)urea trifluoroacetate]",< 500
18,"CC(Oc1ccc2nc(NC(=O)NCCCn3cccc3)sc2c1)c1c(Cl)ccc(F)c1Cl (centres unmarked) [Example 40, 1-{6-[1-(2,6-dichloro-3-fluorophenyl)ethoxy]-1,3-benzothiazol-2-yl}-3-[3-(1H-pyrrol-1-yl)propyl]urea]",500 to 10000
19,"CC(Oc1ccc2nc(NC(=O)NCCCN3CCC(Cc4ccccc4)CC3)sc2c1)c1c(Cl)ccc(F)c1Cl (centres unmarked) [Example 41, 1-[3-(4-benzylpiperidin-1-yl)propyl]-3-{6-[1-(2,6-dichloro-3-fluorophenyl)ethoxy]-1,3-benzothiazol-2-yl}urea]",500 to 10000
20,"CC(Oc1ccc2nc(NC(=O)NCCCN3CCOCC3)sc2c1)c1c(Cl)ccc(F)c1Cl (centres unmarked) [Example 42, 1-{6-[1-(2,6-dichloro-3-fluorophenyl)ethoxy]-1,3-benzothiazol-2-yl}-3-(3-morpholin-4-ylpropyl)urea]",< 500
21,"CC(Oc1ccc2nc(NC(=O)NCCCN(C)C)sc2c1)c1c(Cl)ccc(F)c1Cl (centres unmarked) [Example 43, 1-{6-[1-(2,6-dichloro-3-fluorophenyl)ethoxy]-1,3-benzothiazol-2-yl}-3-[3-(dimethylamino)propyl]urea]",< 500
22,"CC(Oc1ccc2nc(NC(=O)NCCCN3CCCCC3)sc2c1)c1c(Cl)ccc(F)c1Cl (centres unmarked) [Example 44, 1-{6-[1-(2,6-dichloro-3-fluorophenyl)ethoxy]-1,3-benzothiazol-2-yl}-3-(3-piperidin-1-ylpropyl)urea]",< 500
23,"CC(Oc1ccc2nc(NC(=O)NCCCN3CCCC3=O)sc2c1)c1c(Cl)ccc(F)c1Cl (centres unmarked) [Example 45, 1-{6-[1-(2,6-dichloro-3-fluorophenyl)ethoxy]-1,3-benzothiazol-2-yl}-3-[3-(2-oxopyrrolidin-1-yl)propyl]urea]",< 500
24,"CC(Oc1ccc2nc(NC(=O)NCCCN3CCN(Cc4c(F)cccc4Cl)CC3)sc2c1)c1c(Cl)ccc(F)c1Cl (centres unmarked) [Example 46, 1-{3-[4-(2-chloro-6-fluorobenzyl)piperazin-1-yl]propyl}-3-{6-[1-(2,6-dichloro-3-fluorophenyl)ethoxy]-1,3-benzothiazol-2-yl}urea]",500 to 10000
25,"CC(Oc1ccc2nc(NC(=O)NCCCN3C(C)CCCC3C)sc2c1)c1c(Cl)ccc(F)c1Cl (centres unmarked) [Example 47, 1-{6-[1-(2,6-dichloro-3-fluorophenyl)ethoxy]-1,3-benzothiazol-2-yl}-3-[3-(2,6-dimethylpiperidin-1-yl)propyl]urea]",500 to 10000
26,"CC(Oc1ccc2nc(NC(=O)NCCCN3CCCCCC3)sc2c1)c1c(Cl)ccc(F)c1Cl (centres unmarked) [Example 48, 1-(3-azepan-1-ylpropyl)-3-{6-[1-(2,6-dichloro-3-fluorophenyl)ethoxy]-1,3-benzothiazol-2-yl}urea]",< 500
